From patent US20030171393A1, “Drugs for sex dysfunctions” (priority 2000, published 2003)
Counter-ions that a name gives are not always drawn.

Tests used:
cavernous body = assay: Relaxation in vitro of cavernous body tissue precontracted with phenylephrine; format: cell-based, White New Zealand rabbits; settings: for Cavernous body % relaxation: tissue precontracted with phenylephrine 10 μM; for Power ratio: ratio between myorelaxing effect on cavernous body and effect on aorta
Source text: (§1) The relaxing effect of the tested drugs on carvernous body tissues has been evaluated with experiments in vitro as a measure of the inhibiting action on the impotence, and on aorta tissues as expression of the undesired hypotensive effect.
(§2) White New Zealand rabbits were sacrificed, cavernous body and aorta specimens were taken and suitably prepared for the determination of the myorelaxing activity in vitro, according to the procedure described by J. Jeremy (Br. J. Urology 79,958-63,1997).
(§3) The tissues were precontracted with phenylephrine (10 μM) and the relaxation was determined in the presence of the compounds object of the invention.
(§4) The 2-(acetyloxy)benzoic acid 6-(nitroxy methyl)-2-methylpyridyl ester hydrochloride (NCX 4050) is prepared as described in patent application PCT/EP 00/01454 (Ex. 1) , the sildenafil nitrate has been prepared as described in patent application WO 99/67231 (Ex. 3). The products used in the experiment were dissolved in dimethylsulphoxide, except sodium nitroprussiate which was dissolved in distilled water.

aorta = assay: Relaxation in vitro of aorta tissue precontracted with phenylephrine (undesired hypotensive effect); format: cell-based, White New Zealand rabbits; settings: tissue precontracted with phenylephrine 10 μM
Source text: as §1, §2, §3, §4

[1] = system: aorta tissues pretreated with sodium nitroprussiate; assay: Aorta relaxation in vitro in the presence of the NO-donor sodium nitroprussiate; format: cell-based, white New Zealand rabbits; settings: 10^−7 M; for Aorta relaxation: strips first treated with sodium nitroprussiate 10^−7 M, percentage with respect to the initial sodium nitroprussiate treatment
Method: The experiment was carried out as described in the previous Example, by using aorta tissues taken from white New Zealand rabbits.

Row | Compound | Cavernous body % relaxation (cavernous body; concentration 3 × 10^-5 M) [%] | Aorta % (aorta; concentration 3 × 10^-5 M) [%] | Aorta relaxation [1] [%] | Cavernous body % relaxation (cavernous body; concentration 10^-6 M) [%] | Power ratio (cavernous body; concentration 10^-6 M) | Power ratio (cavernous body; concentration 10^-6 M, listed as sildenafil nitrate) | Aorta % (aorta; concentration 10^-6 M) [%] | Strengthening of the relaxing effect induced by sodium nitroprussiate (hypotensive effect), in words ([1]; aorta strips pretreated with sodium nitroprussiate 10^−7 M)
1 | CCCc1nn(C)c2c(=O)[nH]c(-c3cc(S(=O)(=O)N4CCN(C)CC4)ccc3OCC)nc12 [Sildenafil Citrate, sildenafil citrate, reference compound] | 50 | 75 | 170 |  |  |  |  | 
2 | sildenafil nitrate |  |  | 120 | 100 | 5 | clearly in favour of the myorelaxing effect | 20 | lower strengthening of the relaxing effect induced by sodium nitroprussiate compared with the sildenafil citrate
3 | CC(=O)Oc1ccccc1C(=O)Oc1ccc(CO[N+](=O)[O-])nc1C.Cl [NCX 4050, 2-(acetyloxy)benzoic acid 6-(nitroxymethyl)-2-methylpyridyl ester hydrochloride] |  |  |  | 80 | 1 |  | 80 | 
